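Where inhibition never reached the appropriate level, the endpoint shown equals the highest concentration tested. Otherwise, values were interpolated linearly from a five-concentration, 48-hour dose response in 96-well plates. GI50 = concentration required for 50% inhibition of growth.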 The source made the active and inactive calls. Cut-off read from the data, not from the text of the source: active = GI50 up to about 1.1 µM and inactive = higher. Where a SMILES comes first, the peptide text is derived from it. The star is where a group is joined. Boc = CC(C)(C)OC(=O)*; nBu = CCCC*
Assays:
Experiment in all cases: NCI anticancer screen, dose series, 48 h
PC-3 = system: PC-3
HCT-116 = system: HCT-116
SR = system: SR
Malme-3M = system: Malme-3M
MDA-N = system: MDA-N
K562 = system: K562
SK-MEL-5 = system: SK-MEL-5
UO-31 = system: UO-31
NCI-H23 = system: NCI-H23
SK-MEL-2 = system: SK-MEL-2
OVCAR-3 = system: OVCAR-3
OVCAR-5 = system: OVCAR-5
IGROV-1 = system: IGROV-1
HL-60 = system: HL-60
MCF7 = system: MCF7
MDA-MB-435 = system: MDA-MB-435
HCT-15 = system: HCT-15
786-0 = system: 786-0
NCI-H460 = system: NCI-H460

Structure (SMILES)	GI50 (PC-3)	GI50 (HCT-116)	GI50 (SR)	GI50 (Malme-3M)	GI50 (MDA-N)	GI50 (K562)	GI50 (SK-MEL-5)	GI50 (UO-31)	GI50 (NCI-H23)	GI50 (SK-MEL-2)	GI50 (OVCAR-3)	GI50 (OVCAR-5)	GI50 (IGROV-1)	GI50 (HL-60)	GI50 (MCF7)	GI50 (MDA-MB-435)	GI50 (HCT-15)	GI50 (786-0)	GI50 (NCI-H460)
CC(=O)On1c(-c2ccccc2-c2nc3ccccc3n2OC(C)=O)nc2ccccc21	4.43 µM (inactive)	25 µM (inactive)	19.1 µM (inactive)	15.1 µM (inactive)	21 µM (inactive)	13.9 µM (inactive)	3.4 µM (inactive)	74.6 µM (inactive)	7.48 µM (inactive)	22.4 µM (inactive)	24.3 µM (inactive)	> 100 µM (inactive)	22.1 µM (inactive)	14.7 µM (inactive)	26.7 µM (inactive)	16.2 µM (inactive)	67.5 µM	46.6 µM (inactive)	–
COc1ccc(CC2Cc3ccccc3CCN2)cc1OC (stereo not given)	> 50 µM (inactive)	20.9 µM (inactive)	–	25.5 µM (inactive)	> 50 µM (inactive)	20 µM (inactive)	–	11.8 µM (inactive)	> 50 µM (inactive)	> 50 µM (inactive)	> 50 µM (inactive)	38.2 µM (inactive)	23.9 µM (inactive)	13.2 µM (inactive)	> 50 µM (inactive)	> 50 µM (inactive)	> 50 µM	26.3 µM (inactive)	37.4 µM (inactive)
NC(Cc1cccc([N+](=O)[O-])c1)C(=O)O (stereo not given)	> 100 µM (inactive)	> 100 µM (inactive)	–	> 100 µM (inactive)	> 100 µM (inactive)	> 100 µM (inactive)	> 100 µM (inactive)	> 100 µM (inactive)	> 100 µM (inactive)	> 100 µM (inactive)	> 100 µM (inactive)	> 100 µM (inactive)	> 100 µM (inactive)	> 100 µM (inactive)	> 100 µM (inactive)	> 100 µM (inactive)	> 100 µM	> 100 µM (inactive)	> 100 µM (inactive)
O=C(c1ccc(Cl)cc1)N(C(=S)OCc1ccccn1)c1ccccc1	45.1 µM (inactive)	46.6 µM (inactive)	> 100 µM (inactive)	61.1 µM (inactive)	> 100 µM (inactive)	48.1 µM (inactive)	58.9 µM (inactive)	31 µM (inactive)	67.6 µM (inactive)	> 100 µM (inactive)	52.7 µM (inactive)	73.6 µM (inactive)	36.1 µM (inactive)	28.8 µM (inactive)	46.3 µM (inactive)	> 100 µM (inactive)	40.4 µM	83.2 µM (inactive)	–
C[Si](C)(OCCS(=O)(=O)O)C1S(=O)(=O)OCCOS1(=O)=O	93.5 µM (inactive)	67.1 µM (inactive)	38.4 µM (inactive)	> 100 µM (inactive)	92 µM (inactive)	70 µM (inactive)	49.5 µM (inactive)	58.6 µM (inactive)	53.8 µM (inactive)	–	> 100 µM (inactive)	> 100 µM (inactive)	> 100 µM (inactive)	27.5 µM (inactive)	36.6 µM (inactive)	43.5 µM (inactive)	67.5 µM	36.1 µM (inactive)	31.7 µM (inactive)
CCCCOc1ccc(CC(NC(=O)OC(C)(C)C)C(=O)NC(C)C(=O)NC(Cc2ccccc2)C(=O)NCC(N)=O)cc1 (stereo not given) (Boc-Y(nBu)AFG-NH2; configuration not given here)	> 100 µM (inactive)	> 100 µM (inactive)	–	> 100 µM (inactive)	61.9 µM (inactive)	> 100 µM (inactive)	> 100 µM (inactive)	> 100 µM (inactive)	> 100 µM (inactive)	18.7 µM (inactive)	> 100 µM (inactive)	> 100 µM (inactive)	31.3 µM (inactive)	22 µM (inactive)	41.1 µM (inactive)	> 100 µM (inactive)	> 100 µM	> 100 µM (inactive)	> 100 µM (inactive)
CCCCCC(=O)OCC1(CO)C/C(=C\CC(C(C)C)C(C)C)C(=O)O1 (stereo not given)	> 100 µM (inactive)	45.7 µM (inactive)	27.2 µM (inactive)	15.3 µM (inactive)	> 100 µM (inactive)	24.1 µM (inactive)	38.4 µM (inactive)	> 100 µM (inactive)	> 100 µM (inactive)	> 100 µM (inactive)	> 100 µM (inactive)	> 100 µM (inactive)	65.8 µM (inactive)	–	78.7 µM (inactive)	> 100 µM (inactive)	75.2 µM	31.9 µM (inactive)	42.3 µM (inactive)
COc1ccc(C(=O)Oc2c(C#N)sc3c2c(=O)n(-c2ccccc2)c(=S)n3-c2ccccc2)cc1	26.5 µM (inactive)	18.1 µM (inactive)	< 0.01 µM (active)	–	> 10 µM (inactive)	30.3 µM (inactive)	21.6 µM (inactive)	2.12 µM (inactive)	20.3 µM (inactive)	–	20.3 µM (inactive)	26.4 µM (inactive)	19.6 µM (inactive)	22.2 µM (inactive)	15 µM (inactive)	22.7 µM (inactive)	16.7 µM	44.1 µM (inactive)	30.5 µM (inactive)
CC(C)C1=CC23CCC4C(C)(C(=O)O)CCCC4(C)C2CC1C1C(=O)N(CCCCCCN2C(=O)C4C5CC6C7(C)CCCC(C)(C(=O)O)C7CCC6(C=C5C(C)C)C4C2=O)C(=O)C13 (stereo not given)	5.9 µM (inactive)	8.51 µM (inactive)	7.43 µM (inactive)	16.7 µM (inactive)	11.1 µM (inactive)	16.6 µM (inactive)	14 µM (inactive)	> 10 µM (inactive)	2.74 µM (inactive)	13.8 µM (inactive)	13.9 µM (inactive)	22.4 µM (inactive)	–	13.5 µM (inactive)	6.76 µM (inactive)	4.54 µM (inactive)	14.8 µM	> 10 µM (inactive)	–
OC1=C(c2ccccc2)C2=NCCN2c2ccccc21	38.1 µM (inactive)	34.7 µM (inactive)	87.3 µM (inactive)	–	41.2 µM (inactive)	21.8 µM (inactive)	27.8 µM (inactive)	36.9 µM (inactive)	33.5 µM (inactive)	18.7 µM (inactive)	18.2 µM (inactive)	66.1 µM (inactive)	40.9 µM (inactive)	45.5 µM (inactive)	42.1 µM (inactive)	39.1 µM (inactive)	33.3 µM	42.5 µM (inactive)	49.9 µM (inactive)
CC1(C)Oc2ccc3c(=O)cc(-c4ccc(F)cc4)oc3c2C1C(=O)O (stereo not given)	> 100 µM (inactive)	> 100 µM (inactive)	> 100 µM (inactive)	> 100 µM (inactive)	> 100 µM (inactive)	> 100 µM (inactive)	> 100 µM (inactive)	–	> 100 µM (inactive)	> 100 µM (inactive)	> 100 µM (inactive)	> 100 µM (inactive)	> 100 µM (inactive)	–	> 100 µM (inactive)	> 100 µM (inactive)	–	> 100 µM (inactive)	–
O=c1[nH]nc(Cc2ccccc2)n1/N=C/c1ccc([N+](=O)[O-])cc1	> 100 µM (inactive)	> 100 µM (inactive)	–	> 100 µM (inactive)	> 100 µM (inactive)	> 100 µM (inactive)	> 100 µM (inactive)	> 100 µM (inactive)	> 100 µM (inactive)	49 µM (inactive)	> 100 µM (inactive)	> 100 µM (inactive)	> 100 µM (inactive)	> 100 µM (inactive)	> 100 µM (inactive)	> 100 µM (inactive)	> 100 µM	> 100 µM (inactive)	> 100 µM (inactive)
CCN1CCCCCCCCCC(=N/O)/C(=N\O)C1	> 100 µM (inactive)	> 100 µM (inactive)	> 100 µM (inactive)	> 100 µM (inactive)	> 100 µM (inactive)	> 100 µM (inactive)	> 100 µM (inactive)	> 100 µM (inactive)	> 100 µM (inactive)	–	> 100 µM (inactive)	> 100 µM (inactive)	> 100 µM (inactive)	> 100 µM (inactive)	> 100 µM (inactive)	> 100 µM (inactive)	> 100 µM	> 100 µM (inactive)	> 100 µM (inactive)
O=C1CSC(c2ccccc2O)N1c1ccc2c(c1)Oc1c(Cl)c3c(c(Cl)c1=N2)Oc1cc(N2C(=O)CSC2c2ccccc2O)ccc1N=3 (stereo not given)	38.4 µM (inactive)	30.6 µM (inactive)	0.873 µM (active)	–	38.4 µM (inactive)	13.2 µM (inactive)	> 100 µM (inactive)	> 100 µM (inactive)	58.3 µM (inactive)	47.6 µM (inactive)	33.3 µM (inactive)	> 100 µM (inactive)	36.1 µM (inactive)	0.664 µM (active)	34 µM (inactive)	29.1 µM (inactive)	> 100 µM	40.1 µM (inactive)	43 µM (inactive)
COc1cc(C2c3cc4c(cc3OC(Nc3ccccc3)C2C)OCO4)cc(OC)c1O (stereo not given)	2.8 µM (inactive)	3.93 µM (inactive)	–	5.47 µM (inactive)	1.18 µM (inactive)	1.97 µM (inactive)	3.08 µM (inactive)	8.38 µM (inactive)	7.03 µM (inactive)	2.22 µM (inactive)	4.47 µM (inactive)	7.96 µM (inactive)	4.55 µM (inactive)	1.92 µM (inactive)	4.47 µM (inactive)	0.394 µM (active)	3.02 µM	7.5 µM (inactive)	–
CC(=O)/C(=C/N1CCNC1=S)C(=O)Nc1ccccc1C	> 100 µM (inactive)	> 100 µM (inactive)	83 µM (inactive)	–	> 100 µM (inactive)	> 100 µM (inactive)	> 100 µM (inactive)	> 100 µM (inactive)	> 100 µM (inactive)	> 100 µM (inactive)	> 100 µM (inactive)	> 100 µM (inactive)	> 100 µM (inactive)	–	> 100 µM (inactive)	> 100 µM (inactive)	> 100 µM	> 100 µM (inactive)	> 100 µM (inactive)
